Molecules are shown by their SMILES. pKd: −log10 of the molar value.

Experiment [1] deals with NATA2Δ (Arabidopsis thaliana, UniProt Q9ZV06). In words: isothermal titration calorimetry. It is filed as binding.
Experiment [2] addresses NATA1Δ (Arabidopsis thaliana, UniProt Q9ZV05). In words: isothermal titration calorimetry. It is filed as binding. (In ITC the heat of successive injections is recorded.)

Sequence of NATA1Δ (Q9ZV05 19-228, stated change not applied): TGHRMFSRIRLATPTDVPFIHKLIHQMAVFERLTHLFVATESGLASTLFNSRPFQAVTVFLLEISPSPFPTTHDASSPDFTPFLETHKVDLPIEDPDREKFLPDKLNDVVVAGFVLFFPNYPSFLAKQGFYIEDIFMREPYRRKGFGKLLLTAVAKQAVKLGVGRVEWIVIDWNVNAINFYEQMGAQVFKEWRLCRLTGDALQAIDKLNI
Sequence of NATA2Δ (Q9ZV06 30-236, stated change not applied): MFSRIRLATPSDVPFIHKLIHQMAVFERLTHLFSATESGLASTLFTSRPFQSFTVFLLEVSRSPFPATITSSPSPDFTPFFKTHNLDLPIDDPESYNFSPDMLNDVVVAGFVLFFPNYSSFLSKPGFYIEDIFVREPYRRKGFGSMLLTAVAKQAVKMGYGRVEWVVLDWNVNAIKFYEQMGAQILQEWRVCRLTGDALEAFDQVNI

The term pKd denotes the Kd on a negative log10 scale, so that one unit is a factor of ten. `CC(=O)SCCNC(=O)CCNC(=O)[C@H](O)C(C)(C)COP(=O)(O)OP(=O)(O)OC[C@H]1O[C@@H](n2cnc3c(N)ncnc32)[C@H](O)[C@@H]1OP(=O)(O)O` [acCoA]: the pKd in experiment [1] and in experiment [2] was approximately 5.00 throughout.

Values taken from doi:10.1101/2024.03.04.583282v1 (biorxiv, 2024).
